Data: US20250281627A1, “CANCER-TARGETING PEPTIDE, PRODRUG NANOPARTICLES COMPRISING SAME, AND PHARMACEUTICAL COMPOSITION COMPRISING SAME FOR CANCER PREVENTION OR TREATMENT” (priority 2022, published 2025)
Counter-ions that a name gives are not always drawn. Like-named read-outs stand apart in the source and are kept apart here. Residues, ends and D or L forms follow the SMILES beside them. No end group written: not given here. *: point of attachment. Doxorubicin(3'-N) = COc1cccc2c1C(=O)c1c(O)c3c(c(O)c1C2=O)C[C@@](O)(C(=O)CO)C[C@@H]3O[C@H]1C[C@H](N*)[C@H](O)[C@H](C)O1; acyl = not defined here; DOX = doxorubicin

Columns and labels:
[1] = test system: HT29 tumor-bearing BALB/c nu/nu mice; assay: Distribution of prodrug nanoparticles in vivo (fluorescence imaging, ex vivo organs, tissue sections)
Protocol: After 3, 6 and 9 hours of the drug injection, the test groups were imaged using an IVIS Lumina Series III system. After euthanasia, liver, lung, spleen, kidney, heart and tumor tissues were recovered.
The obtained tissues were sliced into 10 μm-thick sections, which were mounted individually on a slide glass, and washed tice with DPBS. Then, after staining with […] for 20 minutes, fluorescence signals were observed by CLSM.

HT29 cells [2] = assay: cells; format: cell-based, human; conditions: 48 hours; for IC50: CCK-8
Protocol: (§1) In addition, cytotoxicity was investigated using CCK-8 (cell counting kit-8). Specifically, 1×10^4 HT29 cells and 0.5×10^4 H9C2 cells were seeded onto a 96-well plate, respectively, and stabilized by culturing for 24 hours. A single administration group, drug administration groups and a control group were obtained by administering the anticancer agent (DOX) alone (0.01 to 100 μM) or together with the prodrug nanoparticles of Example 4 and Comparative Example 3 (0.01 to 100 μM), respectively, to each well and incubating at 37° C. for 48 hours. After the incubation was completed, a culture medium containing a 10% CCK-8 solution was added. After conducting reaction for 20 minutes, analysis was made with a microplate reader at a wavelength of 450 nm. After plotting cell survivability depending on concentration, IC50 (half-maximal inhibitory concentration) values were obtained for the single administration group, drug administration groups and control group using the GraphPad Prism 8 software (GraphPad Software, San Diego, CA, USA).

H9C2 cells [3] = assay: Cytotoxicity CCK-8; format: cell-based, rat; conditions: for IC50: 48 hours, CCK-8, normal cells (cardiomyocytes)
Protocol: as §1

[4] = test system: HT29 tumor-bearing BALB/c nu/nu mice; conditions: mouse, in vivo, iv
Protocol: (§3) 1×10^7 HT29 cells were subcutaneously injected into the left flank of the 5-week-old male BALB/c nu/nu mice. An animal model of cancer was prepared by breeding the mice until the tumor size grew to about 60 to 80 mm^3.
(§4) Test groups 6 to 8 were prepared by injecting an anticancer agent (DOX) (3 mg/kg) or the prodrug nanoparticles of Example 4 (4 or 10 mg/kg based on DOX concentration) to the animal model of cancer via the tail vein once in 3 days at the same time (n=5 for each test group). The overall treatment period was 26 days, and the number of drug administration was 8 times.
(§5) After the treatment period, tumor volume, body weight and survival rate of each test group were measured every 2 days. After euthanasia, liver, lung, spleen, kidney, heart and cancer tissues were recovered and subjected to histological and TUNEL assay.
(§6) The tumor volume was calculated from the longest diameter×(the shortest diameter)^2×0.53 of the cancer tissue, and a tumor volume larger than 1,000 mm^3 was judged as death.
(§7) For histological analysis, each of the recovered liver, lung, spleen, kidney, heart and cancer tissues was fixed with 4% paraformaldehyde for 15 minutes, embedded in wax, and then sliced to 10 μm-thick sections. Then, after staining with H&E, the morphological damage to the tissues was analyzed by imaging with an optical microscope.
(§8) The cancer tissue was stained by TUNEL (terminal deoxynucleotidyl transferase dUTP nick end labeling) analysis for visualization of the apoptotic region.

tumor-free BALB/c mice [5] = conditions: multiple administration; for body weight change: once in 3 days, 8 times
Protocol: 8 days later, the mice were euthanized and liver, lung, spleen, kidney, heart and cancer tissues were recovered. Each of the recovered liver, lung, spleen, kidney, heart and cancer tissues was fixed with 4% paraformaldehyde for 15 minutes, embedded in wax, and then sliced to 10 μm-thick sections. Then, after staining with H&E, the morphological damage to the tissues was analyzed by imaging with an optical microscope.
(§9) For evaluation of hematotoxicity, 1 mL of blood was taken from each test group, and blood plasma was separated by centrifuging at 4,500 rpm for 20 minutes. Blood analysis was performed according to the instructions of KNOTUS Co., Ltd. (Incheon, Korea).

H9C2 cells [6] = assay: Cell-specific activity, DOX fluorescence distribution (CLSM); format: cell-based, rat; conditions: 5 μM, 48 hours
Protocol: (§2) Then, experiment was performed as follows to analyze specific activity for cells. First, 2×10^5 HT29 cells and 2×10^5 H9C2 cells were seeded onto a glass-bottomed confocal dish, respectively. Cathepsin B-inhibited cells (HT29-Inh) were prepared by pretreating HT29 cells with Z-Phe-Ala-FMK (20 μM) for 24 hours. After stabilizing the cells by culturing for 24 hours, and administering the anticancer agent (DOX) alone (5 μM) or together with the prodrug nanoparticles of Example 4 and Comparative Example 3 (5 μM), respectively, a single administration group, drug administration groups and a control group were obtained by incubating at 37° C. for 48 hours. […] Each group was imaged by CLSM to obtain a fluorescence image, and fluorescence intensity was quantified from the fluorescence image to investigate the distribution of the prodrug nanoparticles using the Image-Pro software (Media Cybernetics, Rockville, MD, USA).

[7] = test system: Cathepsin B-inhibited cells (HT29-Inh); assay: as above; format: cell-based, human; conditions: HT29-Inh cells (Z-Phe-Ala-FMK 20 μM pretreated), 5 μM, 48 hours
Protocol: as §2

[8] = test system: HT29 tumor-bearing BALB/c nu/nu mice; assay: Anticancer effect in animal model of cancer
Protocol: as §3, §4, §5, §6, §7, §8

tumor-free BALB/c mice [9] = assay: Toxicity in vivo, single administration; conditions: single i.v. administration
Protocol: Test groups 9 to 12 were prepared by injecting an anticancer agent (DOX) (3 or 4 mg/kg) or the prodrug nanoparticles of Example 4 (4 or 10 mg/kg based on DOX concentration) once to tumor-free BALB/c mice (5-week-old) via the tail vein (n=5 for each test group).
Tumor volume, body weight and survival rate were measured every day after injection of the drug to the test groups. 8 days later, the mice were euthanized and liver, lung, spleen, kidney, heart and cancer tissues were recovered. Each of the recovered liver, lung, spleen, kidney, heart and cancer tissues was fixed with 4% paraformaldehyde for 15 minutes, embedded in wax, and then sliced to 10 μm-thick sections. Then, after staining with H&E, the morphological damage to the tissues was analyzed by imaging with an optical microscope.
as §9

Cytotoxicity CCK-8 = format: cell-based, rat; conditions: rat, H9C2 cells; at 1 to 100 μM, 48 hours; read-out: survival rate of normal cells
Protocol: as §1

[10] = test system: T1, FRRL-DOX conjugate / prodrug nanoparticles of Example 4 (N-acylated Phe-Arg-Arg-Leu conjugated with doxorubicin)
T1 sequence: FRRG

HT29 cells [11] = assay: Degradation after cellular uptake (MALDI-TOF of cell filtrate); format: cell-based, human; conditions: 100 μM, 48 hours
Protocol: In order to further investigate whether the prodrug nanoparticles are degraded after cellular uptake, 1×10^6 HT29 cells were seeded onto a 100-mm cell culture dish and stabilized by culturing for 24 hours. After administering the prodrug nanoparticles of Examples 4 to 6 and Comparative Example 3 (100 μM) to the cells, drug administration groups 1, 2 and 3 (FRRL-DOX, FRRLG-DOX, FLRRG-DOX) and a control group (FRRG-DOX) were obtained by incubating at 37° C. for 48 hours. Each group was washed with PBS and dispersed in distilled water (H2O). The dispersion was filtered through a 0.45-μm syringe filter, and the recovered filtrate was subjected to mass analysis by MALDI-TOF.

HT29 colon cancer cells = assay: Cellular uptake and intranuclear localization (CLSM); format: cell-based, human; conditions: 5 μM
Protocol: The cellular uptake and intranuclear localization of the prodrug nanoparticles (5 μM) were analyzed using HT29 colon cancer cells. In order to investigate the intracellular behavior and intracellular interaction of the prodrug nanoparticles, 2×10^5 HT29 cells were seeded onto a glass-bottomed confocal dish. After stabilizing the cells by culturing for 24 hours, they were treated with the prodrug nanoparticles of Examples 4 to 6 and Comparative Example 3 (5 μM), and drug administration groups 1, 2 and 3 (FRRL-DOX, FRRLG-DOX, FLRRG-DOX) and a control group (FRRG-DOX) were obtained by incubating at 37° C. for 0, 24 and 48 hours. […] Each group was imaged by CLSM to obtain a fluorescence image, and fluorescence intensity was quantified from the fluorescence image to investigate the distribution of the prodrug nanoparticles using the Image-Pro software (Media Cybernetics, Rockville, MD, USA).

[12] = biological target: lysosome enzymes other than cathepsin B; assay: cell-based or functional assay
[13] = i.v. once in 3 days, test group 6
[14] = test group 4, 4 mg/kg based on DOX

COc1cccc2c1C(=O)c1c(O)c3c(c(O)c1C2=O)C[C@@](O)(C(=O)CO)C[C@@H]3O[C@H]1C[C@H](NC(=O)CNC(=O)[C@H](CCCNC(=N)N)NC(=O)[C@H](CCCNC(=N)N)NC(=O)[C@H](Cc2ccccc2)NC(C)=O)[C@H](O)[C@H](C)O1 [Comparative Example 3] (Ac-FRRG-{Doxorubicin(3'-N)})
accumulation in liver tissues relative to cancer tissues ([1]; test group 2, 4 mg/kg based on DOX, i.v.): 2.4 times
accumulation in liver tissues relative to cancer tissues ([1]; test group 3, 10 mg/kg based on DOX, i.v.): 6.7 times
IC50 (HT29 cells [2]): 14.1 µM
IC50 (H9C2 cells [3]): 158 µM

COc1cccc2c1C(=O)c1c(O)c3c(c(O)c1C2=O)C[C@@](O)(C(=O)CO)C[C@@H]3O[C@H]1C[C@H](N)[C@H](O)[C@H](C)O1 [DOX, Doxorubicin hydrochloride]
red fluorescence (DOX) in cancer tissue sections ([1]; 4 mg/kg i.v., confocal, DAPI): hardly observed
fluorescence intensity in kidney tissues relative to cancer tissues ([1]; 4 mg/kg i.v., test group 1): 8.8 times
IC50 (HT29 cells [2]; Homo sapiens, HT-29): 0.12 µM
systemic toxicity [4]: severe systemic toxicity
hematotoxicity (tumor-free BALB/c mice [5]): significant hematotoxicity
histochemical analysis of organ tissues (H&E) (tumor-free BALB/c mice [5]): normal tissues were destroyed and damaged
all the mice died within (tumor-free BALB/c mice [5]; DOX 3 and 4 mg/kg): ≤ 20 days
levels of hemoglobin and hematocrit (tumor-free BALB/c mice [5]; DOX 3 and 4 mg/kg): outside normal ranges
body weight change (tumor-free BALB/c mice [5]): rapid body weight decrease
location of fluorescence of anticancer agent (DOX) (H9C2 cells [6]): penetrated into the cell nucleus
location of fluorescence of anticancer agent (DOX) [7]: penetrated into the cell nucleus
histopathological analysis of cancer tissue ([8]; H&E, after treatment): relatively weak damage of the cancer tissue
TUNEL assay of cancer tissue (green fluorescence) ([8]; after treatment): weak green fluorescence
all the mice died within [8, 13]: ≤ 20 days
death observed within [8, 13]: ≤ 5 days
survival rate in tumor cells versus normal cells (H9C2 cells [3]; HT29 versus H9C2): no difference in the survival rate
IC50 (H9C2 cells [3]; Rattus norvegicus, H9c2): 0.12 µM
histochemical analysis of organ tissues (H&E) (tumor-free BALB/c mice [9]): damaged severely
body weight decrease (tumor-free BALB/c mice [9]; 3 and 4 mg/kg): ≥ 9%

COc1cccc2c1C(=O)c1c(O)c3c(c(O)c1C2=O)C[C@@](O)(C(=O)CO)C[C@@H]3O[C@H]1C[C@H](NC(=O)[C@H](CC(C)C)NC(=O)[C@H](CCCNC(=N)N)NC(=O)[C@H](CCCNC(=N)N)NC(=O)[C@H](Cc2ccccc2)NC(C)=O)[C@H](O)[C@H](C)O1 [Example 4] (Ac-FRRL-{Doxorubicin(3'-N)})
accumulation efficiency for cancer tissues (in vivo fluorescence imaging) ([1]; 4 mg/kg based on DOX, i.v., 9 hours, vs DOX alone or Comparative Example 3): significantly high accumulation efficiency for cancer tissues
cancer-targeting ability (fluorescence of isolated cancer tissue), times higher than DOX ([1]; 4 mg/kg based on DOX, i.v., test group 4 vs 1): 2.3 times
cancer-targeting ability (fluorescence of isolated cancer tissue), times higher than Comparative Example 3 ([1]; 4 mg/kg based on DOX, i.v., test group 4 vs 2): 1.4 times
accumulation in cancer tissues relative to kidney tissues ([1]; 4 and 10 mg/kg based on DOX, i.v., test groups 4 and 5): ≥ 2 times
accumulation efficiency for liver tissues, times lower than Comparative Example 3 ([1]; first of two printed values (4 and 10 mg/kg groups)): 2.4 times
accumulation efficiency for liver tissues, times lower than Comparative Example 3 ([1]; second of two printed values (4 and 10 mg/kg groups)): 4.8 times
red fluorescence in cancer tissue sections, times stronger than test group 1 [1, 14]: 6.7 times
red fluorescence in cancer tissue sections, times stronger than test group 3 [1, 14]: 2.6 times
IC50 (HT29 cells [2]): 6.13 µM
survival rate of cancer cells (HT29 cells [2]; at 1 to 100 μM): 0%
hematotoxicity (tumor-free BALB/c mice [5]): no hematotoxicity
histochemical analysis of organ tissues (H&E) (tumor-free BALB/c mice [5]): no significant damage of organ tissues
all the mice survived healthily for (tumor-free BALB/c mice [5]; 4 and 10 mg/kg based on DOX): more than 26 days
body weight change (tumor-free BALB/c mice [5]): no body weight change
systemic toxicity ([8]; repeated i.v. administration in tumor-bearing mice): no severe systemic toxicity
viability at 48 h (Cytotoxicity CCK-8): 80%
IC50 (H9C2 cells [3]): 182 µM
histochemical analysis of organ tissues (H&E) (tumor-free BALB/c mice [9]): no damaged organ tissue
body weight change (tumor-free BALB/c mice [9]; 4 and 10 mg/kg based on DOX): no significant change in body weight

Cathepsin B (purchased from R&D Systems), enzyme in solution
RP-HPLC peaks of conjugate and cleavage product over reaction time [10]: a peak of L-DOX was observed at 14.7 minutes 3 hours after the reaction. The peak of the FRRL-DOX conjugate began to decrease and was not detected at all 24 hours after the reaction

Example 6: conjugate of N-terminally acylated peptide Phe-Leu-Arg-Arg-Gly (SEQ ID NO: 3) and doxorubicin; self-assembled prodrug nanoparticles (acyl-FLRRG-{DOX}; reading uncertain; also: printed as FLRRG-DOX)
degradation of prodrug nanoparticles in the cancer cells (MALDI-TOF) (HT29 cells [11]): slightly low sensitivity to cathepsin B
anticancer agent (DOX) delivered into the nucleus (ratio of accumulation in the nucleus) (HT29 colon cancer cells; 48 h, fluorescence intensity nucleus vs cytoplasm): 21%
location of red fluorescence (DOX) in the cells (HT29 colon cancer cells; confocal images): mainly in the region other than the nucleus

B1: FLRRG-DOX conjugate / prodrug nanoparticles of Example 6 (N-acylated Phe-Leu-Arg-Arg-Gly conjugated with doxorubicin) (peptide)
peptide: FLRRG-{DOX}
modifications: not fully specified (N-terminus); printed as FLRRG-DOX
degradation ratio (%) [12]: < 5%

B2: FRRLG-DOX conjugate / prodrug nanoparticles of Example 5 (N-acylated Phe-Arg-Arg-Leu-Gly conjugated with doxorubicin) (peptide)
peptide: FRRLG-{DOX}
modifications: not fully specified (N-terminus); printed as FRRLG-DOX
degradation ratio (%) [12]: < 5%
